Data: patent publication US20250332173A1, “COMPOUNDS AND METHODS FOR MODULATING NUCLEIC ACID SPLICING” (REMIX THERAPEUTICS INC., priority 2021, published 2025)
Where two headings read alike, the source gives them in different places.

Assays:
HTT mRNA = test: RT-qPCR splicing assay, HTT canonical junction (CJ) and alternative junction (AJ) mRNA; type: cell-based, human; conditions: Homo sapiens; for AC50: increase in HTT alternative junction (AJ) mRNA, read-out: HTT AJ AC50
In short: (§1)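 24 h treatment, 37 °C/5% CO2; A673 or K562; 11-pt 3-fold series, top 10 uM final; DMSO ≤0.25%. Cell lysis with DNase I, then 1-step RT-qPCR. Housekeeping normalization: PPIA (A673), GAPDH or GUSB (K562).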

MYB mRNA = test: RT-qPCR splicing assay, MYB canonical junction (CJ) and alternative junction (AJ) mRNA; type: cell-based, human; conditions: Homo sapiens; for AC50: increase in MYB alternative junction (AJ) mRNA, read-out: MYB AJ AC50
In short: as §1

[1] = decrease in HTT canonical junction (CJ) mRNA, RT-qPCR, read-out: HTT CJ IC50
[2] = Table 5 panel, canonical junction qPCR, compound concentration having 50% response in CJ decrease, read-out: HTT IC50 (decrease in CJ mRNA levels)
[3] = Table 5 panel, canonical junction qPCR, compound concentration having 50% response in CJ decrease, read-out: MYB IC50 (decrease in CJ mRNA levels)
[4] = decrease in MYB canonical junction (CJ) mRNA, RT-qPCR, read-out: MYB CJ IC50

Compound	IC50 (HTT mRNA; [1]) [nM]	AC50 (HTT mRNA; RT-qPCR) [nM]	IC50 (HTT mRNA; [2]) [nM]	IC50 (MYB mRNA; [3]) [nM]	IC50 (MYB mRNA; [4]) [nM]	AC50 (MYB mRNA; RT-qPCR) [nM]
Cn1cc2c(n1)CCN(c1cc(F)c3c(=O)n(C4CCNCC4)cnc3c1)C2 [Compound 365, 5-fluoro-7-(2-methyl-2,4,6,7-tetrahydro-5H-pyrazolo[4,3-c]pyridin-5-yl)-3-(piperidin-4-yl)quinazolin-4(3H)-one]	> 10000	> 10000	> 10000	1000 to 10000	1000 to 10000	1000 to 10000
Cc1cn2cc(-c3cc(F)c4c(=O)n(C5CCOC5)cnc4c3)cc(C#N)c2n1 (stereo not drawn) [Compound 366, 6-[5-fluoro-4-oxo-3-(oxolan-3-yl)quinazolin-7-yl]-2-methylimidazo[1,2-a]pyridine-8-carbonitrile]	1000 to 10000	1000 to 10000	1000 to 10000	1000 to 10000	1000 to 10000	1000 to 10000
Cc1cn2cc(-c3cc(F)c4c(=O)n(C5CCOCC5)cnc4c3)cc(C#N)c2n1 [Compound 367, 6-[5-fluoro-3-(oxan-4-yl)-4-oxoquinazolin-7-yl]-2-methylimidazo[1,2-a]pyridine-8-carbonitrile]	100 to 1000	100 to 1000	100 to 1000	100 to 1000	100 to 1000	100 to 1000
Cc1cn2nc(-c3ccc4c(=O)n([C@H]5CCNC6(CC6)C5)ncc4c3)cc(C)c2n1 [Compound 369, 2-[(7S)-4-azaspiro[2.5]octan-7-yl]-6-{2,8-dimethylimidazo[1,2-b]pyridazin-6-yl}phthalazin-1-one]	< 100	< 100	< 100	< 100	< 100	< 100
Cc1cn2cc(-c3cc(F)c4c(=O)n(C5CCNCC5)ccc4c3)cc(F)c2n1 [Compound 370]	< 100	< 100	< 100	< 100	< 100	< 100
Cc1cn2nc(-c3ccc4c(=O)n([C@H]5CCNC[C@H]5F)cnc4c3)cc(C)c2n1 [Compound 372]	100 to 1000	100 to 1000	100 to 1000	100 to 1000	100 to 1000	100 to 1000
Cc1cc(-c2ccc3c(=O)n(C4CCNC5(COC5)C4)cnc3c2)cc2cn(C)nc12 (stereo not drawn) [Compound 375]	1000 to 10000	1000 to 10000	1000 to 10000	1000 to 10000	1000 to 10000	1000 to 10000
Cc1cc(-c2ccc3c(=O)n([C@@H]4CCNC[C@H]4F)ncc3c2)cc2cn(C)nc12 [Compound 378]	1000 to 10000	1000 to 10000	1000 to 10000	1000 to 10000	1000 to 10000	1000 to 10000
Cc1cn2nc(-c3ccc4c(=O)n([C@@H]5CCNC[C@H]5F)ncc4c3)cc(C)c2n1 [Compound 379]	100 to 1000	100 to 1000	100 to 1000	100 to 1000	100 to 1000	100 to 1000
Cc1cn2nc(-c3cc(F)c4c(=O)n(C5CCNC6(CC6)C5)ccc4c3)cc(C)c2n1 (stereo not drawn) [Compound 380, 6-(2,8-dimethylimidazo[1,2-b]pyridazin-6-yl)-8-fluoro-2-(4-azaspiro[2.5]octan-7-yl)isoquinolin-1(2H)-one]	< 100	< 100	< 100	< 100	< 100	< 100
Cc1cn2nc(-c3ccc4c(=O)n(C5CCNCC5)cc(C)c4c3)cc(C)c2n1 [Compound 381, 6-{2,8-dimethylimidazo[1,2-b]pyridazin-6-yl}-4-methyl-2-(piperidin-4-yl)isoquinolin-1-one]	100 to 1000	< 100	< 100	< 100	< 100	< 100
Cc1cn2cc(-c3cc(F)c4c(=O)n(C5CCNCC5)ccc4c3)cc(C#N)c2n1 [Compound 383, 6-[8-fluoro-1-oxo-2-(piperidin-4-yl)isoquinolin-6-yl]-2-methylimidazo[1,2-a]pyridine-8-carbonitrile]	1000 to 10000	100 to 1000	100 to 1000	< 100	< 100	< 100
Cc1cn2nc(-c3ccc4c(=O)n(C5CCNC6(CC6)C5)ccc4c3)cc(C)c2n1 (stereo not drawn) [Compound 384]	< 100	< 100	< 100	< 100	< 100	< 100
Cc1cn2nc(-c3cc(C#N)c4c(=O)n(C5CCNC6(CC6)C5)ccc4c3)cc(C)c2n1 (stereo not drawn) [Compound 387]	< 100	< 100	< 100	< 100	< 100	< 100
Cc1cn2nc(-c3cc(Cl)c4c(=O)n(C5CCNCC5)ccc4c3)cc(C)c2n1 [Compound 390, 8-chloro-6-{2,8-dimethylimidazo[1,2-b]pyridazin-6-yl}-2-(piperidin-4-yl)isoquinolin-1-one; trifluoroacetaldehyde]	< 100	< 100	< 100	< 100	< 100	< 100
Cc1cn2nc(-c3cc(O)c4c(=O)n(C5CCNCC5)ccc4c3)cc(C)c2n1 [Compound 391, 6-(2,8-dimethylimidazo[1,2-b]pyridazin-6-yl)-8-hydroxy-2-(piperidin-4-yl)isoquinolin-1(2H)-one]	< 100	< 100	< 100	< 100	< 100	< 100
CC(=O)c1cc(-c2cc(F)c3c(=O)n(C4CCNCC4)ccc3c2)cn2cc(C)nc12 [Compound 393, 6-{8-acetyl-2-methylimidazo[1,2-a]pyridin-6-yl}-8-fluoro-2-(piperidin-4-yl)isoquinolin-1-one 2,2,2-trifluoroacetate]	1000 to 10000	100 to 1000	100 to 1000	100 to 1000	100 to 1000	100 to 1000
Cn1cc2cc(-c3cc(F)c4c(=O)n(C5CCNCC5)ccc4c3)cc(C#N)c2n1 [Compound 394, 5-(8-fluoro-1-oxo-2-(piperidin-4-yl)-1,2-dihydroisoquinolin-6-yl)-2-methyl-2H-indazole-7-carbonitrile]	< 100	< 100	< 100	< 100	< 100	< 100
COc1cc(-c2cc(C)c3nc(C)cn3n2)cc2ccn(C3CCNCC3)c(=O)c12 [Compound 399, 6-{2,8-dimethylimidazo[1,2-b]pyridazin-6-yl}-8-methoxy-2-(piperidin-4-yl)isoquinolin-1-one]	100 to 1000	100 to 1000	100 to 1000	100 to 1000	100 to 1000	100 to 1000
Cc1cn2nc(-c3cc(F)c4c(=O)n(C5CCN(C)CC5)ccc4c3)cc(C)c2n1 [Compound 400, 6-(2,8-dimethylimidazo[1,2-b]pyridazin-6-yl)-8-fluoro-2-(1-methylpiperidin-4-yl)isoquinolin-1(2H)-one]	< 100	< 100	< 100	< 100	< 100	< 100
CCN1CCC(n2ccc3cc(-c4cc(C)c5nc(C)cn5n4)ccc3c2=O)CC1 [Compound 402, 6-{2,8-dimethylimidazo[1,2-b]pyridazin-6-yl}-2-(1-ethylpiperidin-4-yl)isoquinolin-1-one]	100 to 1000	100 to 1000	100 to 1000	< 100	100 to 1000	< 100
